This assay has as its system volunteer human subjects. As to the kind of experiment: Human clinical anti-perspirant study, gravimetric perspiration on lower back. It counts as in vivo. The conditions noted are these: Table D study; Acetyl Hexapeptide-30 and Pentapeptide-18 tested in combination. The protocol: The effectiveness of the peptide material at addressing perspiration was evaluated in a human clinical study. The screening of various potential sweat-reducing materials was determined using at least 20 volunteer human subjects. Twenty-four subjects were planned for enrollment into the study to ensure that 20 subjects completed testing. Baseline screening was performed on up to 40 subjects to ensure a sufficient number of subjects were enrolled in the treatment application phase who met minimum sweat production criteria of 50 mg over a 20-minute collection period. As shown in Table C and Table D, each subject had seven test materials randomly applied to the lower back in 2 inch by 2 inch treatment application areas and one site was left untreated on each subject as a control. The study subjects participated in a 4-day test period consisting of four, supervised treatment applications, spaced 24-hours apart, and one post treatment application sweat collection period 1-hour post-product application on Day 4. The study staff visually assessed the application sites, and applied each of the test materials to the backs of the subjects. […] Subjects were instructed to not leave the room during the approximately 60-minute test period. • Absorbent gauze sponges, 2 inch by 2 inch (two 4-ply sponges, Avant Gauze® Sponges), were applied to the eight sites on the lower back of the subjects. Sponges were occluded on the site using 3MTM BlendermTM Medical Tape, and affixed to the site using Scanpor® Paper Tape. • The sponges remained in place for a 20-minute acclimation period. […] Subjects were not allowed to consume water during this 20-minute period. • Following the 20-minute period, the sponges with the 3MTM BlendermTM Medical Tape were removed and sealed in a bag or container for weighing within 1-hour of removal. • After exiting the temperature-controlled room, the subjects again sat in normal ambient indoor temperature for at least 20-minutes, and trained technicians determined the body temperature, pulse, and blood pressure of each subject. […]

Take Acetyl Dipeptide-1 Cetyl Ester: the “Activity of the peptide in the presence of a salt based cosmetic astringent, in words” value (from here on “Activity of the peptide”) was “high activity”.

For the substance Acetyl Hexapeptide-30, the “Activity of the peptide” value is given as “high activity”.

As to Pentapeptide-18, the “Activity of the peptide” value is recorded as “high activity”.

Values taken from patent US20190015312A1, “COSMETIC FORMULATIONS” (KIMBERLY-CLARK WORLDWIDE, INC., priority 2015, published 2019).
